Data: article PMC6268773, “Aminodi(hetero)arylamines in the Thieno[3,2-b]pyridine Series: Synthesis, Effects in Human Tumor Cells Growth, Cell Cycle Analysis, Apoptosis and Evaluation of Toxicity Using Non-Tumor Cells” (Molecules, 2012)

What was measured:
[1] = test system: MCF-7 (breast adenocarcinoma); experiment: SRB cell growth inhibition assay, MCF-7; assay type: cell-based; conditions: Homo sapiens, MCF7, MCF-7, 48h continuous treatment, mean ± SD, n = 3
Description: (§1) The effects of the aminodi(hetero)arylamines in the growth of four human tumour cell lines (MCF-7, A375-C5, NCI-H460 and HepG2) were evaluated using the SRB assay. Doxorubicin and ellipticine were used as positive controls. Furthermore, to investigate the possible toxicity of the compounds, the in vitro cell growth inhibition assay (SRB) was also performed using porcine liver non-tumor cells (PLP1) established by us.
(§2) Four human tumor cell lines, MCF-7 (breast adenocarcinoma), A375-C5 (melanoma), NCI-H460 (non-small cell lung cancer) and HepG2 (hepatocellular carcinoma) were used. MCF-7, A375-C5 and HepG2 were obtained from the European Collection of Cell Cultures (ECACC, Salisbury, UK) and NCI-H460 was kindly provided by the National Cancer Institute (NCI, Bethesda, MD, USA). Cells were routinely maintained as adherent cell cultures in RPMI-1640 medium supplemented with 5% FBS (MCF-7, NCI-H460 and A375-C5 cells) or in DMEM supplemented with 10% FBS, 2 mM glutamine, 100 U/mL penicillin and […] streptomycin (HepG2 cells), at 37 °C in a humidified atmosphere containing 5% CO2.
(§3) The effects of the compounds on the in vitro growth of human tumor cell lines and non-tumor porcine liver primary cells were evaluated according to the procedure adopted by the NCI (USA) in their “In vitro Anticancer Drug Discovery Screen”, using the SRB assay to assess cell growth.
(§4) For the cell lines, exponentially growing cells were obtained by plating 1.5 × 10^5 cells/mL for MCF-7, 0.75 × 10^5 cells/mL for A375-C5 and NCI-H460, and 5.0 × 10^5 cells/mL for HepG2, followed by 24 h of incubation. For the primary porcine liver cells, cells were incubated in 96-well plates at a density of 5.0 × 10^5 cells/mL, and cultivated in DMEM medium with 10% FBS, 100 U/mL penicillin and […] streptomycin.
(§5) Following a 24 h period to allow cells to adhere, cells were treated for 48 h with six serial dilutions of each test compound, starting from a maximum concentration of 125 µM. Following the 48 h treatment period, adherent cells were fixed in situ, washed and stained with SRB. The bound stain was solubilized and the absorbance was measured at 492 nm in the case of MCF-7, NCI-H460 and A375-C5 cells and at 515 nm in the case od HepG2 and PLP1 primary cells, in a plate reader (Biotek Instruments Inc., Powerwave XS, Bedfordshire, UK). Dose response curves were obtained and the concentration of the diarylamine that inhibited 50% of the net cell growth (GI50) was calculated as described elsewhere. Doxorubicin and ellipticine were used as positive controls of cell growth inhibition.

[2] = test system: HepG2 (hepatocellular carcinoma); experiment: SRB cell growth inhibition assay, HepG2; assay type: cell-based; conditions: Homo sapiens, HepG2, 48h continuous treatment, mean ± SD, n = 3
Description: as §1, §2, §3, §4, §5

[3] = SRB toxicity assay in non-tumor porcine liver primary cells; assay type: cell-based; conditions: pig, porcine liver primary cell culture (PLP1), non-tumor, PLP1 non-tumor porcine liver cells, 48h continuous treatment, SRB, mean ± SD, n = 3
Description: as §1
(§6) Porcine liver primary cell culture (PLP1) was prepared from freshly harvested porcine liver, obtained from a local slaughter house. Briefly, the liver tissue was rinsed in HBSS solution containing 100 U/mL penicillin, 100 µg/mL streptomycin and divided into 1 × 1 mm^3 explants. Some of these explants were placed in 25 cm^2 tissue flasks in DMEM medium supplemented with 10% FBS, 2 mM nonessential amino acids, 100 U/mL penicillin and […] streptomycin. This cell culture was maintained according to the procedure described previously by us.
as §3, §4, §5

[4] = test system: porcine liver primary cell culture (PLP1); experiment: as above; assay type: cell-based
Description: as §1, §6, §3, §4, §5

NCI-H460 cells [5] = experiment: Apoptosis by flow cytometry (Annexin V-FITC/PI); assay type: cell-based, human; conditions: NCI-H460, compound at GI50 concentration (1.4 μM), 48 h, Annexin V/Propidium iodide
Description: Following 48 h treatment of NCI-H460 cells with compound 3c, as described above, the levels of apoptosis were analysed by flow cytometry using the Human Annexin V-FITC/PI apoptosis kit (Bender MedSystems, Vienna, Austria), according to the manufacturer’s instructions. Flow cytometry was carried out using an Epics XL-MCL Coulter flow cytometer plotting at least 20,000 events per sample, as previously described. The data was analysed using the FlowJo 7.2 software (Tree Star, Inc.).

A375-C5 (melanoma) = experiment: SRB cell growth inhibition assay, A375-C5; assay type: cell-based; conditions: Homo sapiens, A375-C5, 48h continuous treatment, mean ± SD, n = 3
Description: as §1, §2, §3, §4, §5

NCI-H460 cells [6] = experiment: Cell cycle distribution profile by flow cytometry (propidium iodide); assay type: cell-based, human; conditions: NCI-H460, compound at GI50 concentration (1.4 μM), 48 h
Description: NCI-H460 cells were plated in 6-well plates at a final density of 1.5 × 10^5 cells/well and incubated at 37 °C for 24 h. […] As controls, cells were also incubated with medium only (blank) and with the compound’s vehicle (DMSO). Following 48 h of treatment, cells were fixed overnight in ice-cold 70% ethanol and re-suspended in PBS containing 0.1 mg/mL RNase A and 5 µg/mL propidium iodide. Cellular DNA content was analysed by flow cytometry using an Epics XL-MCL Coulter Flow cytometer (Brea, CA, USA) plotting at least 20,000 events per sample, as previously described. The analysis of cell cycle distribution was subsequently performed using the FlowJo 7.2 software (Tree Star, Inc., Ashland, USA) after cell debris and aggregates exclusion.

[7] = test system: human tumor cell lines MCF-7, A375-C5, NCI-H460 and HepG2; experiment: SRB cell growth inhibition, all tested human tumor cell lines (summary); assay type: cell-based; conditions: span over MCF-7, A375-C5, NCI-H460, HepG2, 48 h
Description: as §1, §3
For the cell lines, exponentially growing cells were obtained by plating 1.5 × 10^5 cells/mL for MCF-7, 0.75 × 10^5 cells/mL for A375-C5 and NCI-H460, and 5.0 × 10^5 cells/mL for HepG2, followed by 24 h of incubation. […]
Following a 24 h period to allow cells to adhere, cells were treated for 48 h with six serial dilutions of each test compound, starting from a maximum concentration of 125 µM. […] The bound stain was solubilized and the absorbance was measured at 492 nm in the case of MCF-7, NCI-H460 and A375-C5 cells and at 515 nm in the case od HepG2 and PLP1 primary cells, in a plate reader (Biotek Instruments Inc., Powerwave XS, Bedfordshire, UK). […]

[8] = test system: NCI-H460 (non-small cell lung cancer); experiment: SRB cell growth inhibition assay, NCI-H460; assay type: cell-based; conditions: Homo sapiens, NCI-H460, 48h continuous treatment, mean ± SD, n = 3
Description: as §1, §2, §3, §4, §5

melting point [°C]	GI50 [1] [µM]	GI50 [2] [µM]	GI50 (A375-C5 (melanoma)) [µM]	GI50 [8] [µM]	Structure (SMILES)	GI50 at 48 h [3] [µM]	also measured
202 to 204					COC(=O)c1sc2cccnc2c1Nc1ccccc1[N+](=O)[O-] [2b, Methyl 3-(2-nitrophenylamino)thieno[3,2-b]pyridine-2-carboxylate]		
172 to 174	1.4 ± 0.2	1.63 ± 0.09	1.3 ± 0.1	1.4 ± 0.4	COC(=O)c1sc2cccnc2c1Nc1ccc(OC)cc1N [3c, Methyl 3-(2-amino-4-methoxhyphenylamino)thieno[3,2-b]pyridine-2-carboxylate]	12.5	toxicity to non-tumor cells (in words) ([4]; PLP1, at the GI50 concentrations found in tumor cell lines / versus ellipticine): did not show toxicity; percentage of apoptotic cells (NCI-H460 cells [5]): 36.6 ± 4.8%; percentage of cells in the G0/G1 phase of the cell cycle (in words) (NCI-H460 cells [6]): significant decrease; % of cells in the sub-G1 peak (in words) (NCI-H460 cells [6]; data not shown): significantly increased; GI50 [7]: < 2 µM
204 to 206	33.8 ± 1.7	99.26 ± 0.92	26 ± 2.3	31.3 ± 2.9	COC(=O)c1sc2cccnc2c1Nc1ccccc1N [3b, Methyl 3-(2-aminophenylamino)thieno[3,2-b]pyridine-2-carboxylate]	61.3	
203 to 205					COC(=O)c1sc2cccnc2c1Nc1ccc([N+](=O)[O-])cc1 [2a, Methyl 3-(4-nitrophenylamino)thieno[3,2-b]pyridine-2-carboxylate]		
213 to 214					COC(=O)c1sc2cccnc2c1Nc1ccc(OC)cc1[N+](=O)[O-] [2c, Methyl 3-(4-methoxy-2-nitrophenylamino)thieno[3,2-b]pyridine-2-carboxylate]		
	> 125	> 125	112 ± 5	> 125	COC(=O)c1sc2cccnc2c1Nc1ccc(N)cc1 [3a, Methyl 3-(4-aminophenylamino)thieno[3,2-b]pyridine-2-carboxylate]	> 125	
	0.04 ± 0.01		0.13 ± 0.01	0.09 ± 0.01	COc1cccc2c1C(=O)c1c(O)c3c(c(O)c1C2=O)C[C@@](O)(C(=O)CO)C[C@@H]3O[C@H]1C[C@H](N)[C@H](O)[C@H](C)O1 [Doxorubicin, reference compound]		

Structure (SMILES)	melting point [°C]	GI50 [1] [µM]	GI50 [2] [µM]	GI50 (A375-C5 (melanoma)) [µM]	GI50 [8] [µM]	GI50 at 48 h [3] [µM]	also measured
Cc1c2ccncc2c(C)c2c1[nH]c1ccccc12 [Ellipticine, reference compound]			0.8 ± 0.05			4	GI50 ([4]; PLP1 non-tumor porcine liver cells, 48h continuous treatment, SRB, mean ± SD, n = 3): 4.19 µM
